The record followed here is US20210100246A1, “PYRIDYL-FORMAMIDINES HAVING A FUNGICIDAL ACTIVITY, THEIR AGRONOMIC COMPOSITIONS AND USE THEREOF” (ISAGRO, S.p.A., priority 2017, published 2021).

The test system of one data set is Puccinia Recondita. In words: Preventive fungicidal activity (5 days) against Puccinia Recondita on wheat. It is filed as in vivo. The following applies: wheat; for Activity P5 NT (reduction of leaf area affected, parts developed during the test): non-treated parts (NT); for effectiveness in containing the disease (in words): summary of Table 4. The protocol:
Determination of the preventive fungicidal activity (5 days) against Puccinia Recondita on wheat.
(§1) Leaves of wheat plants of the Salgemma variety, grown in pots in a conditioned environment at 20° C. and 70% of Relative Humidity (RH) were treated by spraying both sides of the leaves with the compound under examination (see Table 4 hereunder) dispersed in a hydroacetonic solution at 20% by volume of acetone.
After remaining 5 days in a conditioned environment, the plants were sprayed on both sides of the leaves with an aqueous suspension of conidia of Puccinia Recondita (2 mg of inoculum per 1 ml of solution for infection).
After spraying, the plants were kept in a humidity-saturated environment at a temperature ranging from 18 to 24° C. for the incubation period of the fungus (1 day).
At the end of this period, the plants were put in a greenhouse with a relative humidity (RH) of 70% and at a temperature of 18-24° C. for 14 days.
At the end of this period, the external symptoms of the pathogen appeared and it was therefore possible to proceed with the visual evaluation of the intensity of the infection, both on the parts treated directly with the products (T) and on the parts developed during the implementation of the test (NT).
(§2) The fungicidal activity is expressed as a percentage of the reduction, with respect to non-treated seedlings (comparison), in the area of the leaf affected by the disease (100=full effectiveness; 0=zero effectiveness).

For another data set, the system named is wheat seedlings. Description: Phytotoxicity (percentage of leaf necrosis) on wheat seedlings. It counts as in vivo. The note with it: for Phytotoxicity % N.F. (leaf necrosis): wheat seedlings, scale 0-100; for symptoms of phytotoxicity on the plant (in words): wheat, summary of Table 4. The protocol: as §1
At the same time, an evaluation of the phytotoxicity was effected (percentage of leaf necrosis) induced on the wheat seedlings by the application of the products: in this case the evaluation scale ranges from 0 (completely healthy plant) to 100 (completely necrotic plant).

For a further data set, the system named is Uromyces Appendiculatus. In words: Preventive fungicidal activity (5 days) against Uromyces Appendiculatus on beans. It counts as in vivo. How it is done: Determination of the preventive fungicidal activity (5 days) against Uromyces Appendiculatus on beans.
(§3) Bean plants cv. Borlotto of Vigevano, grown in pots in a conditioned environment, were treated by spraying both sides with the products under examination in a hydroacetonic solution with 20% by volume of acetone (vol./vol.).
After remaining 5 days in a conditioned environment at 23° C. and 70% of relative humidity, the plants were sprayed on the lower side with an aqueous suspension of spores of Uromyces Appendiculatus (200,000 spores/cc); after remaining 24 hours in a humidity-saturated environment, they were re-transferred to the conditioned environment.
After this period, the external symptoms of the pathogen appeared and it was therefore possible to proceed with the visual evaluation of the intensity of the infection.
as §2

The next data set has as its system bean seedlings. Description: Phytotoxicity (percentage of leaf necrosis) on bean seedlings. It counts as in vivo. The following applies: scale 0-100. The protocol:
as §3
At the same time, an evaluation of the phytotoxicity was effected (percentage of leaf necrosis) induced on the bean seedlings by the application of the products: in this case the evaluation scale ranges from 0 (completely healthy plant) to 100 (completely necrotic plant).

The next data set relates to Sphaerotheca Fuliginea. Description: Preventive fungicidal activity (7 days) against Sphaerotheca Fuliginea on cucumbers. It is filed as in vivo. The protocol: Determination of the preventive fungicidal activity (7 days) against Sphaerotheca Fuliginea on cucumbers.
(§4) Cucumber plants cv. Lungo of China, grown in pots in a conditioned environment were treated by spraying both sides with the products under examination in a hydroacetonic solution with 20% by volume of acetone (vol./vol.).
7 days after the treatment, the plants were sprayed on the upper side with an aqueous suspension of spores of Sphaerotheca Fuliginea (200,000 spores/cc); they were then re-transferred to the conditioned environment.
At the end of the period of incubation (8 days), the evaluation of the intensity of the infection was finally effected.
as §2

A further data set deals with cucumber seedlings. In words: Phytotoxicity (percentage of leaf necrosis) on cucumber seedlings. It counts as in vivo. The following applies: scale 0-100. How it is done:
as §4
At the same time, an evaluation of the phytotoxicity was effected (percentage of leaf necrosis) induced on the cucumber seedlings by the application of the products: in this case the evaluation scale ranges from 0 (completely healthy plant) to 100 (completely necrotic plant).

A short description of data set [1]: Accelerated stability test of 5% solutions in commercial solvents (54° C., 2 weeks, HPLC). It counts as physicochemical. The protocol:
Stability tests of the compositions containing compounds having formula (I) in a solvent
In order to evaluate the chemical stability of the compounds having Formula (I) in a solvent, 5% solutions were prepared, containing 250 mg of compounds Nr. 1, 17, 39 and 40, dissolved in 4.75 g of various commercial solvents used for the preparation of emulsifiable concentrates.
The resulting solutions were put in an oven at 54° C. for 2 weeks (according to Cipac MT 46.1 update 2012) and then analyzed by means of HPLC in order to verify the concentration of the active ingredient contained therein. The percentage of degradation of the compound having Formula (I) was therefore obtained, after the accelerated stability test.

The test system of a further data set is Parastagonospora nodorum. In words: Preventive activity (7 days) against Parastagonospora nodorum on wheat. It is filed as in vivo. The note with it: 250 ppm. How it is done: Determination of the preventive activity (7 days) of the compounds having formula (I) against Parastagonospora nodorum on wheat. […] After remaining 48 hours in a humidity-saturated environment, at 21° C., the plants were transferred for the incubation period (10-12 days) to a conditioned environment at 70% of R.H. and at a temperature of 24° C. At the end of this period, the external symptoms of the pathogen appeared and it was therefore possible to proceed with the visual evaluation of the intensity of the infection. The fungicidal activity was expressed as a percentage of the reduction, with respect to non-treated seedlings (comparison), in the area of the leaf affected by the disease (100=full effectiveness; 0=zero effectiveness). Table 7 indicates the results obtained by carrying out the test described with compound Nr. 12, compared with a compound described in WO2008/101682: […]

For the next data set, the system named is Helmintosporium teres. In words: Preventive fungicidal activity (7 days) against Helmintosporium teres on barley. It is filed as in vivo. The following applies: for Activity P7: 125 ppm, scale 0 (completely infected plant) to 100 (healthy plant). The protocol: Determination of the preventive fungicidal activity (7 days) against Helmintosporium teres on barley. […] After remaining 7 days in a conditioned environment, the plants were sprayed on both sides of the leaves with an aqueous suspension of conidia of Helmintosporium teres (50,000 conidia/cc+Tween 20-1 drop/100 ml). The plants were then kept in a controlled environment during the incubation period of the fungus (wet room 1 day for infection, 3 days in a cell with 70% of R.H. and at a temperature of […] for the incubation period, 3 days for completion in a wet room, biological cycle 12 days). At the end of this period (12 days), the fungicidal activity was evaluated according to an evaluation percentage scale from 0 (completely infected plant) to 100 (healthy plant).

Regarding `CCN(C)C=Nc1cc(Br)c(SCc2cccc(C(F)(F)F)c2)nc1C` [Compound 1, N-ethyl-N-methyl-N′-5bromo-2-methyl-6-{[3-(trifluoromethyl)benzyl]thio}pyridyl-3-formamidine], the “Activity P5 NT (reduction of leaf area affected, parts developed during the test)” value in the data set with Puccinia Recondita (125 ppm) was 75%; with Puccinia Recondita (250 ppm), 85%. In addition, the results for the “Activity P5 T (reduction of leaf area affected, parts treated directly)” value with Puccinia Recondita (125 ppm) and with Puccinia Recondita (250 ppm) were 98% and 100%, respectively. For the same compound, the “effectiveness in containing the disease (in words)” value with Puccinia Recondita was “effective in containing the disease”. For the same compound, the “Phytotoxicity % N.F. (leaf necrosis)” value in the data set with wheat seedlings (125 ppm), in the data set on wheat seedlings (250 ppm), in the data set with bean seedlings (30 ppm), with bean seedlings (125 ppm), in the data set on cucumber seedlings (30 ppm) and with cucumber seedlings (125 ppm) was 0 % N.F in each case. In addition, the “symptoms of phytotoxicity on the plant (in words)” value with wheat seedlings was “do not show any symptoms of phytotoxicity”. For the same compound, the “Activity P5” value in the data set on Uromyces Appendiculatus (30 ppm) was 90%; in the data set with Uromyces Appendiculatus (125 ppm) it was 100%; in the data set on Sphaerotheca Fuliginea (30 ppm), 90%; with Sphaerotheca Fuliginea (125 ppm), 100%. Moreover, the percentage of degradation in data set [1] (solvent ADMA 10 (N,N-dimethyldecanamide)) is given as 1.07%; in [1] (solvent Alkamuls T/20 (ethoxylated sorbitan monolaurate)), 58.61%; in data set [1] (solvent CME (rapeseed methyl ester)), 10.79%; in data set [1] (solvent FMPC (N-formylmorpholine and propylene carbonate)), 1.46%; in data set [1] (solvent Green 25 (dimethylsulfoxide, acetophenone, 2-ethylhexyl acetate)), 2.07%; in [1] (solvent Propylene carbonate) it was 3%. For the same compound, the percentage of degradation in data set [1] (solvent Purasolv BL (butyl lactate)) amounted to 100%; in data set [1] (solvent RPDE (dimethyl glutarate, dimethyl succinate, dimethyl adipate)), 0.78%.

Take `CCN(C)C=Nc1cc(C)c(SCCC(C)C)nc1C` [Compound 2]: the “Activity P5 NT (reduction of leaf area affected, parts developed during the test)” value in the data set with Puccinia Recondita (125 ppm) turned out to be 85%; in the data set on Puccinia Recondita (250 ppm), 95%. In addition, the “Activity P5 T (reduction of leaf area affected, parts treated directly)” value with Puccinia Recondita (125 ppm) and with Puccinia Recondita (250 ppm) was 100% in each case. Moreover, the “effectiveness in containing the disease (in words)” value in the data set with Puccinia Recondita was “effective in containing the disease”. In addition, the “Phytotoxicity % N.F. (leaf necrosis)” value with wheat seedlings (125 ppm) was determined as 0 % N.F; in the data set with wheat seedlings (250 ppm) it was 0 % N.F; in the data set on bean seedlings (30 ppm), 0 % N.F; in the data set with bean seedlings (125 ppm) it was 0 % N.F; in the data set with cucumber seedlings (30 ppm), 0 % N.F; in the data set on cucumber seedlings (125 ppm), 2 % N.F. Moreover, the “symptoms of phytotoxicity on the plant (in words)” value in the data set with wheat seedlings is recorded as “do not show any symptoms of phytotoxicity”. The “Activity P5” value is given as 100% in the data set with Uromyces Appendiculatus (30 ppm), 100% with Uromyces Appendiculatus (125 ppm), 99% in the data set on Sphaerotheca Fuliginea (30 ppm) and 100% with Sphaerotheca Fuliginea (125 ppm).

As to “N-ethyl-N-methyl-N′-[5-bromo-2-methyl-6-[(1-methyl -2-propoxyethoxy]pyridyl-3-formamidine [CR3]”, the “Activity P7” value in the data set on Parastagonospora nodorum amounted to 57%.

As to `CCN(C)C=Nc1cc(Br)c(Sc2ccc(Cl)c(C(F)(F)F)c2)nc1C` [Compound 8], in the data set on Helmintosporium teres, the “effectiveness on Helmintosporium teres (in words)” value is listed as “higher effectiveness with respect to the reference compound CR4” and the “Activity P7” value stood at 30%.

As for “N-ethyl-N-methyl-N′-[5-bromo-2-methyl-6-[(4-chloro-3-trifluoromethyl]phenoxy]pyridyl-3-formamidine [CR4, reference compound]”, in the data set on Helmintosporium teres, the “effectiveness on Helmintosporium teres (in words)” value is “completely inactive” and the “Activity P7” value worked out at 0%.
